Laboratory results reported in PubChem BioAssay (NCI).
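48-hour exposure; five concentrations; linearly interpolated endpoints. The concentration for 50% growth inhibition is given as GI50. TGI denotes the concentration required for complete inhibition of growth.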

How the values were obtained:
Assay in all cases: growth of human tumour cells (NCI), 48 h
[1] = test system: ACHN renal
[2] = test system: A498 renal
[3] = test system: A549 NSCLC
[4] = test system: SW-620 colon
[5] = test system: HOP-92 NSCLC
[6] = test system: HL-60(TB) leukemia
[7] = test system: U251 CNS
[8] = test system: HOP-62 NSCLC
[9] = test system: PC-3 prostate
[10] = test system: TK-10 renal

SMILES | TGI [1] | TGI [2] | TGI [3] | TGI [4] | TGI [5] | TGI [6] | TGI [7] | TGI [8] | TGI [9] | TGI [10] | GI50 [1] | GI50 [2] | GI50 [3] | GI50 [4] | GI50 [5] | GI50 [6] | GI50 [7] | GI50 [8] | GI50 [9] | GI50 [10]
O=C(NCCCCCCCCCCCCNC(=O)Nc1cccc2ccccc12)Nc1cccc2ccccc12 | 27.1 µM | 31.7 µM | 32.9 µM | 33.1 µM | 25.9 µM | 37.3 µM | 31.8 µM | 20.1 µM | 29.7 µM | 31.5 µM |  |  |  |  |  |  |  |  |  | 
CCOC(=O)c1nc2ccc(C(F)(F)F)cc2nc1Oc1cc(OC)c(OC)c(OC)c1 | > 100 µM | > 100 µM | > 100 µM | > 100 µM | > 100 µM | > 100 µM | > 100 µM | > 100 µM | > 100 µM | > 100 µM |  |  |  |  |  |  |  |  |  | 
Cc1cc(-c2nc3cc(F)ccc3s2)ccc1NC(=O)[C@@H](N)CCCCN | 19.3 µM | 23.9 µM | 3.88 µM | 6.04 µM | 30.3 µM | 6.29 µM | 3.89 µM | 11 µM | 21.4 µM | 0.903 µM |  |  |  |  |  |  |  |  |  | 
N#CC1(C#N)NC(c2cccs2)C(C#N)(C#N)NC1c1cccs1 (stereo not given) | > 100 µM | 74.6 µM | > 100 µM | > 100 µM | 78.7 µM | 41.3 µM | 64.5 µM | > 100 µM | > 100 µM | > 100 µM |  |  |  |  |  |  |  |  |  | 
O=S(=O)(c1ccc(NC2=NC(c3ccc(O)cc3)(c3ccccc3O)c3ccccc32)cc1)c1ccc(NC2=NC(c3ccc(O)cc3)(c3ccccc3O)c3ccccc32)cc1 (stereo not given) | > 100 µM | 44.8 µM | > 100 µM | > 100 µM | > 70.6 µM | 5.09 µM | > 100 µM | > 100 µM | > 58.7 µM | > 100 µM |  |  |  |  |  |  |  |  |  | 
Cc1ccc2c(=O)cc(-c3ccc(Cl)s3)[nH]c2n1 | > 100 µM | > 100 µM | > 29.3 µM | > 100 µM | > 100 µM | 0.989 µM | > 100 µM | > 100 µM | > 100 µM | > 100 µM |  |  |  |  |  |  |  |  |  | 
Cc1cc(F)ccc1S(=O)(=O)Nc1cc(-c2c(O)ccc3ccccc23)c(O)c2ccccc12 | 8.03 µM | 9.75 µM | 15.5 µM | 11.8 µM | 2.82 µM | 6.19 µM | 15.5 µM | 18.7 µM | 5.12 µM | 17.6 µM | 2.44 µM | 3 µM | 3.76 µM | 2.48 µM | 0.292 µM | 2.6 µM | 3.67 µM | 3.27 µM | 1.37 µM | 5.87 µM
CCN(CC)N1C(=O)[N+](CC)(CC)N=C1[O-] | > 100 µM | > 100 µM | > 100 µM | > 100 µM | > 100 µM | > 100 µM | > 100 µM | > 100 µM | > 100 µM | > 100 µM |  |  |  |  |  |  |  |  |  | 
CC1CCCC2(CC[N+](C)(CCC[N+](C)(C)C)CC2)C1 (stereo not given) | > 100 µM | > 100 µM | > 100 µM | > 100 µM | > 100 µM | 43.9 µM | > 100 µM | > 100 µM | > 100 µM | > 100 µM |  |  |  |  |  |  |  |  |  | 
C[C@H](NC(=O)C(Cc1ccccc1)(Cc1ccc(O)cn1)NC(=O)c1ccccc1)c1ccccc1 (stereo not given in full) | 43.2 µM | 33.5 µM | 31.6 µM | 59.3 µM | 38.8 µM | 64.6 µM | 28.6 µM | 33.8 µM | 28.7 µM | 94.8 µM |  |  |  |  |  |  |  |  |  | 
C[n+]1cccc2c(=O)c3ccccc3oc21 | > 100 µM | > 100 µM | > 100 µM | > 100 µM | > 100 µM | > 100 µM | > 100 µM | > 100 µM | > 100 µM | > 100 µM |  |  |  |  |  |  |  |  |  | 
COc1cccc(CCN2CCN(CCCc3ccccc3)CC2)c1 | > 100 µM | > 100 µM | > 100 µM | > 100 µM | 64.4 µM | > 100 µM | > 100 µM | > 100 µM | > 100 µM | > 100 µM |  |  |  |  |  |  |  |  |  | 
CN(C)c1nc(N)nc(CS)n1 | > 100 µM | > 100 µM | > 100 µM | > 100 µM | > 100 µM | 60.6 µM | > 100 µM | > 100 µM | > 100 µM | > 100 µM |  |  |  |  |  |  |  |  |  | 
O=C1C(Cl)=C(OCCCl)C(=O)c2c(O)ccc(O)c21 | 10.4 µM | 34.8 µM | 37.9 µM | 9.9 µM | 3.12 µM | 0.197 µM | 27.9 µM | 30.4 µM | 26 µM | 7.76 µM |  |  |  |  |  |  |  |  |  | 
CCNC(=S)N=Nc1c(O)[nH]c2ccc([N+](=O)[O-])cc12 | > 100 µM | 89.3 µM | > 100 µM | > 100 µM | > 100 µM | > 100 µM | > 100 µM | > 100 µM | > 100 µM | > 100 µM |  |  |  |  |  |  |  |  |  | 
O=C1C[C@@H](C(=O)OCc2ccccc2)NC(=O)C[C@@H](C(=O)OCc2ccccc2)NC(=O)C[C@@H](C(=O)OCc2ccccc2)N1 | > 62.9 µM | > 95.1 µM | > 100 µM | > 100 µM | > 60.7 µM | 9.88 µM | > 100 µM | > 88.5 µM | > 100 µM | 73.6 µM |  |  |  |  |  |  |  |  |  | 
Cc1ccc(OCC2OC(n3cnc4c(Cl)nc(N)nc43)CC2Oc2ccc(C)cc2)cc1 (stereo not given) | 40 µM | > 100 µM | > 100 µM | > 100 µM | 51.7 µM | > 71.7 µM | > 100 µM | > 52.5 µM | > 58.5 µM | > 100 µM |  |  |  |  |  |  |  |  |  | 
Cc1ccc([S@](=O)c2occc2C=O)cc1 | 28.7 µM | 32.3 µM | 46.5 µM | 3.63 µM | 7.78 µM | 4.25 µM | 27.4 µM | 35.2 µM | 10.4 µM | 18.6 µM |  |  |  |  |  |  |  |  |  | 
CC(NC(=O)C(NC(=O)CNC(=O)OC(C)(C)C)C(C)C)C(=O)Oc1c(Cl)c(Cl)c(Cl)c(Cl)c1Cl (stereo not given) | 58.9 µM | 45 µM | 57.5 µM | 60 µM | 41.3 µM | > 100 µM | 48.3 µM | 35.7 µM | 32.1 µM | 77.2 µM |  |  |  |  |  |  |  |  |  | 
OCC(O)C(O)C(O)C(O)c1nc2ccc(Cl)cc2[nH]1 (stereo not given) | > 100 µM | > 100 µM | > 100 µM | > 100 µM | > 100 µM | 4.89 µM | > 100 µM | > 100 µM | > 100 µM | > 100 µM |  |  |  |  |  |  |  |  |  | 
CC1C(=O)N(c2ccccc2)NC12CCCc1ccccc12 (stereo not given) | > 100 µM | > 100 µM | > 100 µM | > 100 µM | > 100 µM | > 100 µM | > 100 µM | > 100 µM | > 100 µM | > 100 µM |  |  |  |  |  |  |  |  |  | 
NS(=O)(=O)c1ccc(/C=C/c2ccc(F)cc2)cc1 | 19.4 µM | > 100 µM | 37.1 µM | > 100 µM | 77.6 µM | > 100 µM | 45.7 µM | 65.9 µM | > 100 µM | > 100 µM | 2.97 µM |  | 8.93 µM |  | 33.2 µM | 37.3 µM | 7.93 µM |  |  | 
OC1(c2ccccc2)CCN(Cc2c[nH]c3ccccc23)CC1 | > 100 µM | > 100 µM | > 100 µM | > 100 µM | > 100 µM | > 100 µM | > 100 µM | > 100 µM | > 100 µM | > 100 µM |  |  |  |  |  |  |  |  |  | 
CC(C)CNc1nc2ncnc(N)c2[nH]1 | > 100 µM | > 100 µM | > 100 µM | > 100 µM | > 100 µM | > 100 µM | > 100 µM | > 100 µM | > 100 µM | > 100 µM |  |  |  |  |  |  |  |  |  | 
OCCO/N=C1\C(c2c(O)[nH]c3ccccc23)=Nc2ccccc21 | > 100 µM | 0.875 µM | > 100 µM | > 100 µM | > 100 µM | > 100 µM | > 100 µM | > 100 µM | > 100 µM | > 100 µM |  |  |  |  |  |  |  |  |  | 
